# Measured values as given in patent publication US9328083B2, “2-aminated methylene or 2-esterified methylene tanshinone derivatives, and preparation method and application thereof” (HANGZHOU BENSHENG PHARMACEUTICAL CO., LTD., priority 2011, dated 2016).
# How the values were obtained:
# [1] = tested on: RPMI8226 (multiple myeloma); assay: MTT growth inhibition of multiple myeloma cells, 72 h; format: cell-based, human; settings: Homo sapiens, RPMI 8226, 72 h; for IC50: read-out: IC50; for IC90: read-out: IC90
# Method: Myeloma cell lines: RPMI8226 (multiple myeloma), purchased from Fuxiang Bio-tech Co. Ltd., Shanghai, China.
# (§1) The standard sample of tanshinone I (TA) and the 2-aminated methylene or 2-esterified methylene tanshinone I derivatives of the present invention are sufficiently dissolved with dimethylsulfoxide to produce a stock solution of 10 mg/mL, which is refrigerated at 4° C. and stored in dark, and is diluted with a cell culture medium to the desired concentration prior to experimentation.
# Obtaining 6000 well-growing myeloma cells as above and inoculating them into wells of a 96-well cell culture plate. The culture medium is the 1640 cell culture medium containing 10% fetal bovine serum. After adding the 2-aminated methylene or 2-esterified methylene tanshinone I derivatives of different concentrations and mixing uniformly, placing the plate in a carbon dioxide cell incubator (5% CO2) at 37° C. and incubated for 72 hours. Then the viable cell concentration is determined by MTT method.
# [2] = tested on: H9 (acute lymphoblastic leukemia, ALL); assay: MTT growth inhibition of leukemia cells, 72 h; format: cell-based, human; settings: for improvement of anti-H9 activity as compared with tanshinone I: H9, vs tanshinone I; for IC50 / IC90: Homo sapiens, H9, 72 h; for IC50: read-out: IC50; for IC90: read-out: IC90
# Description: (§2) Leukemia cell lines: leukemia cell lines: K562/adr (drug-resistant, chronic myeloid leukemia, CML), NB4 (acute promyelocytic leukemia, AML), Kasumi-1 (acute myeloid leukemia M2 type, AML-M2), and Jurkat (acute lymphoblastic leukemia, ALL), all of which are donated by Cancer Research Institute of Zhejiang University, China; and H9 (acute lymphoblastic leukemia, ALL), which is purchased from China Center for Type Culture Collection (CCTCC).
# as §1
# (§3) Obtaining 6000 well-growing leukemia cells and inoculating them into wells of a 96-well cell culture plate. The culture medium is the RPMI-1640 cell culture medium containing 10% fetal bovine serum. After adding on the second day the 2-aminated methylene or 2-esterified methylene tanshinone I derivatives of different concentrations and mixing uniformly, placing the plate in a carbon dioxide cell incubator (5% CO2) at 37° C. and incubated for 72 hours. Then the viable cell concentration is determined by MTT method.
# [3] = tested on: K562/adr (drug-resistant, chronic myeloid leukemia, CML); assay: MTT growth inhibition of leukemia cells, 72 h; format: cell-based, human; settings: Homo sapiens, K562/Adr; for IC50: read-out: IC50; for IC90: read-out: IC90
# Description: as §2, §1, §3
# [4] = tested on: Kasumi-1 (acute myeloid leukemia M2 type, AML-M2); assay: MTT growth inhibition of leukemia cells, 72 h; format: cell-based, human; settings: Homo sapiens, Kasumi-1, 72 h; for IC50: read-out: IC50; for IC90: read-out: IC90
# Description: as §2, §1, §3
# [5] = tested on: Jurkat (acute lymphoblastic leukemia, ALL); assay: MTT growth inhibition of leukemia cells, 72 h; format: cell-based, human; settings: Homo sapiens, 72 h; for IC50: read-out: IC50; for IC90: read-out: IC90
# Description: as §2, §1, §3
# [6] = tested on: NB4 (acute promyelocytic leukemia, AML); assay: MTT growth inhibition of leukemia cells, 72 h; format: cell-based, human; settings: for IC50 / IC90: Homo sapiens, NB4, 72 h; for IC50: read-out: IC50; for IC90: read-out: IC90
# Description: as §2, §1, §3
# [7] = tested on: Hela (human cervical cancer cell); assay: MTT growth inhibition of human solid tumor cells, 72 h; format: cell-based; settings: for IC50 / IC90: Homo sapiens, HeLa, 72 h; for IC50: read-out: IC50; for IC90: read-out: IC90
# Method: (§4) Hep-2 (laryngeal carcinoma), A549 (human lung cancer), CaES-17 (esophageal cancer cell), PC-3 (prostate cancer), CNE (nasopharyngeal carcinoma cell), and SK-OV-3 (ovarian cancer cell), all of which are purchased from China Center For Type Culture Collection; RKO (human colon adenocarcinoma cell), MGC 803 (human gastric cancer cell), MG63 (osteosarcoma) and U87 MG (malignant glioma cell), all of which are purchased from Fuxiang Bio-tech Co. Ltd., Shanghai, China; PANC-1 (pancreatic cancer), Hep G2 (human liver cancer cell), Becap37 (human breast cancer cell) and Hela (human cervical cancer cell), all of which are donated by Cancer Research Institute of Zhejiang University, China.
# as §1
# (§5) Obtaining 4000 well-growing human solid tumor cells and inoculating them into wells of a 96-well cell culture plate. The culture medium is DMEM High Glucose cell culture medium containing 10% fetal bovine serum. The plate is placed in a carbon dioxide cell incubator (5% CO2) at 37° C. and incubated for 24 hours. After adding the 2-aminated methylene or 2-esterified methylene tanshinone I derivatives of different concentrations and mixing uniformly, the plate is placed in a carbon dioxide cell incubator (5% CO2) at 37° C. and incubated for 72 hours. Then the viable cell concentration is determined by the MTT method.
# MG63 (osteosarcoma) = assay: as above; format: cell-based; settings: Homo sapiens, MG-63, 72 h; for IC50: read-out: IC50; for IC90: read-out: IC90
# Method: as §4, §1, §5
# PC-3 (prostate cancer) = assay: as above; format: cell-based; settings: Homo sapiens, PC-3, 72 h; for IC50: read-out: IC50; for IC90: read-out: IC90
# Method: as §4, §1, §5
# [8] = tested on: Becap37 (human breast cancer cell); assay: as above; format: cell-based; settings: Homo sapiens, Becap-37, 72 h; for IC50: read-out: IC50; for IC90: read-out: IC90
# Method: as §4, §1, §5
# [9] = tested on: CaES-17 (esophageal cancer cell); assay: as above; format: cell-based; settings: Homo sapiens, CaEs17, CaEs-17, 72 h; for IC50: read-out: IC50; for IC90: read-out: IC90
# Method: as §4, §1, §5
# [10] = tested on: Hep G2 (human liver cancer cell); assay: as above; format: cell-based; settings: Homo sapiens, HepG2, Hep G2, 72 h; for IC50: read-out: IC50; for IC90: read-out: IC90
# Method: as §4, §1, §5
# [11] = tested on: CNE (nasopharyngeal carcinoma cell); assay: as above; format: cell-based; settings: Homo sapiens; for IC50: read-out: IC50; for IC90: read-out: IC90
# Method: as §4, §1, §5
# [12] = tested on: U87 MG (malignant glioma cell); assay: as above; format: cell-based; settings: for IC50 / IC90: Homo sapiens, U-87 MG, U87-MG, 72 h; for IC50: read-out: IC50; for IC90: read-out: IC90
# Method: as §4, §1, §5
# [13] = tested on: MGC 803 (human gastric cancer cell); assay: as above; format: cell-based; settings: Homo sapiens, MGC-803, 72 h; for IC50: read-out: IC50; for IC90: read-out: IC90
# Method: as §4, §1, §5
# [14] = tested on: Hep-2 (laryngeal carcinoma); assay: as above; format: cell-based; settings: for IC50 / IC90: Homo sapiens, HEp-2, 72 h; for IC50: read-out: IC50; for IC90: read-out: IC90
# Method: as §4, §1, §5
# [15] = tested on: PANC-1 (pancreatic cancer); assay: as above; format: cell-based; settings: Homo sapiens, PANC-1, 72 h; for IC50: read-out: IC50; for IC90: read-out: IC90
# Method: as §4, §1, §5
# [16] = tested on: SK-OV-3 (ovarian cancer cell); assay: as above; format: cell-based; settings: Homo sapiens, SK-OV-3, 72 h; for IC50: read-out: IC50; for IC90: read-out: IC90
# Method: as §4, §1, §5
# [17] = tested on: RKO (human colon adenocarcinoma cell); assay: as above; format: cell-based; settings: Homo sapiens; for IC50: read-out: IC50; for IC90: read-out: IC90
# Method: as §4, §1, §5
# A549 (human lung cancer) = assay: as above; format: cell-based; settings: Homo sapiens, A549, 72 h; for IC50: read-out: IC50; for IC90: read-out: IC90
# Method: as §4, §1, §5
structure (smiles),measurement,setting,value
Cc1c(CNCCO)oc2c1C(=O)C(=O)c1c-2ccc2c(C)cccc12 [BS-TA-65],IC50,[1],0.125 µg/mL
same,IC90,[1],0.25 µg/mL
same,improvement of anti-H9 activity as compared with tanshinone I,[2],27 fold
same,IC50,[2],0.13 µg/mL
same,IC90,[2],0.41 µg/mL
same,IC50,[3],0.16 µg/mL
same,IC90,[3],1.08 µg/mL
same,IC50,[4],0.074 µg/mL
same,IC90,[4],0.12 µg/mL
same,IC50,[5],0.17 µg/mL
same,IC90,[5],0.47 µg/mL
same,IC50,[6],0.04 µg/mL
same,IC90,[6],0.08 µg/mL
same,improvement of anti-NB4 activity as compared with tanshinone I,"[6]; NB4, vs tanshinone I",24 fold
same,IC50,[7],0.42 µg/mL
same,IC90,[7],1 µg/mL
same,IC50,MG63 (osteosarcoma),0.31 µg/mL
same,IC90,MG63 (osteosarcoma),0.98 µg/mL
same,IC50,PC-3 (prostate cancer),0.44 µg/mL
same,IC90,PC-3 (prostate cancer),3.58 µg/mL
same,IC50,[8],0.27 µg/mL
same,IC90,[8],0.68 µg/mL
same,IC50,[9],0.3 µg/mL
same,IC90,[9],0.81 µg/mL
same,IC50,[10],0.31 µg/mL
same,IC90,[10],1.5 µg/mL
same,IC50,[11],0.6 µg/mL
same,IC90,[11],1.8 µg/mL
same,IC50,[12],0.15 µg/mL
same,IC90,[12],0.35 µg/mL
same,improvement of anti-U87 MG activity as compared with tanshinone I,"[12]; U87 MG, vs tanshinone I",more than 42 fold
same,IC50,[13],0.15 µg/mL
same,IC90,[13],1.7 µg/mL
same,IC50,[14],0.78 µg/mL
same,IC90,[14],2.38 µg/mL
same,IC50,[15],0.26 µg/mL
same,IC90,[15],1.9 µg/mL
same,IC50,[16],0.86 µg/mL
same,IC90,[16],1.91 µg/mL
same,IC50,[17],0.037 µg/mL
same,IC90,[17],0.29 µg/mL
same,IC50,A549 (human lung cancer),0.979 µg/mL
same,IC90,A549 (human lung cancer),3.52 µg/mL
Cc1c(CN(C)CCOC(=O)[C@@H](N)C(C)C)oc2c1C(=O)C(=O)c1c-2ccc2c(C)cccc12 [BS-TA-71],IC50,[1],0.25 µg/mL
same,IC90,[1],0.83 µg/mL
same,improvement of anti-H9 activity as compared with tanshinone I,[2],28 fold
same,IC50,[2],0.125 µg/mL
same,IC90,[2],0.49 µg/mL
same,IC50,[3],0.47 µg/mL
same,IC90,[3],0.76 µg/mL
same,IC50,[4],0.13 µg/mL
same,IC90,[4],0.39 µg/mL
same,IC50,[5],0.37 µg/mL
same,IC90,[5],0.94 µg/mL
same,IC50,[6],0.15 µg/mL
same,IC90,[6],0.41 µg/mL
same,improvement of anti-Hela activity as compared with tanshinone I,"[7]; Hela, vs tanshinone I",more than 8 fold
same,IC50,[7],0.47 µg/mL
same,IC90,[7],1.75 µg/mL
same,IC50,MG63 (osteosarcoma),0.61 µg/mL
same,IC90,MG63 (osteosarcoma),1.79 µg/mL
same,IC50,PC-3 (prostate cancer),0.92 µg/mL
same,IC90,PC-3 (prostate cancer),3.74 µg/mL
same,IC50,[8],0.4 µg/mL
same,IC90,[8],0.9 µg/mL
same,IC50,[9],0.52 µg/mL
same,IC90,[9],0.59 µg/mL
same,IC50,[10],0.66 µg/mL
same,IC90,[10],1.85 µg/mL
same,IC50,[11],0.63 µg/mL
same,IC90,[11],1.43 µg/mL
same,IC50,[12],0.66 µg/mL
same,IC90,[12],1.55 µg/mL
same,IC50,[13],0.41 µg/mL
same,IC90,[13],2.24 µg/mL
same,improvement of anti-Hep-2 activity as compared with tanshinone I,"[14]; Hep-2, vs tanshinone I",more than 4 fold
same,IC50,[14],0.62 µg/mL
same,IC90,[14],1.76 µg/mL
same,IC50,[15],0.4 µg/mL
same,IC90,[15],4.73 µg/mL
same,IC50,[16],1.66 µg/mL
same,IC90,[16],3.39 µg/mL
same,IC50,[17],0.14 µg/mL
same,IC90,[17],1.28 µg/mL
same,IC50,A549 (human lung cancer),0.8 µg/mL
same,IC90,A549 (human lung cancer),2.82 µg/mL
